Values of other authors in patent US5973156A, “Piperidine and tetrahydropyridine derivatives” (Merck Sharp & Dome Ltd., priority 1995, dated 1999).

Tests used:
[1] = humans, therapeutic doses
[2] = test system: human 5-HT1D.spsb.α and 5-HT1D.spsb.β receptor subtypes

## CNS(=O)(=O)Cc1ccc2[nH]cc(CCN(C)C)c2c1 [sumatriptan]
[1]
  adverse cardiovascular events: certain adverse cardiovascular events
[2]
  discrimination between the human 5-HT1D.spsb.α and 5-HT1D.spsb.β receptor subtypes: barely discriminates
